In patent US20080139664A1, “ANTI-GLYCATION AGENTS FOR PREVENTING AGE-, DIABETES-, AND SMOKING-RELATED COMPLICATIONS” (NATIONAL RESEARCH COUNCIL OF CANADA, priority 2001, published 2008):
Where two headings read alike, the source gives them in different places.

Experiments:
[1] = tested on: bovine serum albumin (BSA); assay: Fluorescamine assay of free primary amino groups of BSA incubated with D-ribose; type: biochemical; conditions: free primary amino group on BSA after 5 days at 37° C.; agent at 16.8 times IC50; 64% without agent
Procedure: Fluorescamine assay (Yeboah F. et al., J. Agric. Food Chem. 48, 2766-2774 (2000)) was performed on incubated mixtures of BSA and D-ribose, with or without the identified anti-glycation agents. The mixtures contained BSA (0.075 mM protein concentration or 4.53 mM of Lys residue concentration) and D-ribose (50 mM). […] The fluorescamine assay determines the number of free lysine residues of BSA. In this experiment, the final volume of the incubation mixtures was 10 mL and the incubation time was 5 days at 37° C. Prior to the fluorescamine assay, the proteins were isolated by reverse phase HPLC. The protein content was determined using the Bio-Rad protein determination reagent (Bradford method). The fluorescamine assay was done in triplicate.

lysozyme = assay: ESI-MS of lysozyme glycoforms after incubation with D-ribose; conditions: 37° C., 5 days; for Peak area as % of total area of all glycoforms, 14,569: lysozyme + 2D-ribose − 2H2O (14,569 Da); for Peak area as % of total area of all glycoforms, 14,551: lysozyme + 2D-ribose − 3H2O (14,551 Da); for Peak area as % of total area of all glycoforms, 14,533: lysozyme + 2D-ribose − 5H2O (14,533 Da); for Peak area as % of total area of all glycoforms, 14,515: lysozyme + 2D-ribose − 6H2O (14,515 Da); for Peak area as % of total area of all glycoforms, 14,419: lysozyme + D-ribose − 2H2O (14,419 Da); for Peak area as % of total area of all glycoforms, 14,401: lysozyme + D-ribose − 3H2O (14,401 Da); for Peak area as % of total area of all glycoforms, 14,437: lysozyme + D-ribose − H2O (14,437 Da); for Peak area as % of total area of all glycoforms, 14,496: lysozyme + D-ribose − H2O with one carboxymethylated Lys residue (14,496 Da); for Peak area as % of total area of all glycoforms, 14,364: lysozyme with one carboxymethylated Lys residue (14,364 Da); for Peak area as % of total area of all glycoforms, 14,305: unmodified lysozyme (14,305 Da);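 for all read-outs here: lysozyme incubated with D-ribose, with or without anti-glycation agents, then separated by reversed-phase HPLC and analysed by electrospray mass spectrometry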
[2] = tested on: bovine serum albumin (BSA); assay: Maillard fluorescence-based assay of AGEs formation, IC50 determination (BSA + D-ribose); conditions: for IC50: inhibition of Maillard fluorescence development, 0.075 mM BSA, 50 mM D-ribose, 37° C., 5 days
[3] = tested on: bovine serum albumin (BSA)

| SMILES | IC50 [3] [µM] | maximum percentage of the inhibition [3] [%)] | Unreacted amino group [1] [%] | Peak area as % of total area of all glycoforms, 14,569 (lysozyme) [%] | Peak area as % of total area of all glycoforms, 14,551 (lysozyme) [%] | Peak area as % of total area of all glycoforms, 14,533 (lysozyme) [%] | Peak area as % of total area of all glycoforms, 14,515 (lysozyme) [%] | Peak area as % of total area of all glycoforms, 14,419 (lysozyme) [%] | Peak area as % of total area of all glycoforms, 14,401 (lysozyme) [%] | Peak area as % of total area of all glycoforms, 14,437 (lysozyme) [%] | Peak area as % of total area of all glycoforms, 14,496 (lysozyme) [%] | Peak area as % of total area of all glycoforms, 14,364 (lysozyme) [%] | Peak area as % of total area of all glycoforms, 14,305 (lysozyme) [%] | IC50 [2] [µM] | maximum percentage of the inhibition ([2]; Maillard fluorescence, listed if significantly lower than 100%) [%)] |
| --- | --- | --- | --- | --- | --- | --- | --- | --- | --- | --- | --- | --- | --- | --- | --- |
| O=c1c(O)cccc2cc(O)c(O)c(O)c12 [Purpurogallin] |  |  | 31 | 3.6 | 1.2 | 0.9 | 0.0 | 4.1 | 0.0 | 22.2 | 0.0 | 0.0 | 67.9 | 76 |  |
| O=C(O[C@@H]1Cc2c(O)cc(O)cc2O[C@@H]1c1cc(O)c(O)c(O)c1)c1cc(O)c(O)c(O)c1 [(−)-Epigallocatechin gallate] |  |  | 58 | 2.9 | 0.8 | 1.7 | 0.0 | 2.6 | 0.0 | 20.9 | 0.0 | 2.0 | 69.1 | 48 | 55 |
| O=c1cc(-c2cc(O)c(O)c(O)c2)oc2cc(O)cc(O)c12 [5,7,3′,4′,5′-Pentahydroxyflavone] |  |  | 54 | 4.3 | 4.3 | 1.7 | 0.7 | 8.6 | 0.2 | 20.6 | 0.0 | 2.2 | 55.0 | 210 |  |
| O=c1cc(-c2ccccc2O)oc2cc(O)cc(O)c12 [5,7,2′-Trihydroxyflavone] |  |  | 53 | 4.3 | 4.8 | 2.3 | 1.7 | 9.3 | 1.6 | 19.8 | 0.0 | 5.8 | 46.7 | 220 |  |
| Cc1cc(N)c2ccccc2c1O [Vitamin K5] |  |  | 51 | 1.6 | 1.3 | 1.6 | 0.0 | 3.3 | 0.0 | 12.2 | 0.0 | 4.9 | 75.1 | 90 |  |
| Oc1cc(O)c2c(c1)O[C@H](c1ccc(O)c(O)c1)[C@H](O)C2 [(−)-Epicatechin] |  |  | 57 | 1.7 | 0.0 | 0.0 | 0.0 | 2.6 | 0.0 | 17.6 | 0.0 | 1.8 | 76.3 | 58 |  |
| Oc1ccc(CC2NCCc3cc(O)c(O)cc32)cc1O (racemic) [(±)-Tetrahydropapaveroline] | 90 |  | 51 | 2.3 | 0.7 | 0.8 | 0.0 | 2.8 | 2.1 | 17.6 | 0.9 | 3.9 | 68.9 |  |  |
| C[C@](N)(Cc1ccc(O)c(O)c1)C(=O)O [L-α-Methyl-DOPA] | 73 |  | 47 | 2.7 | 0.5 | 0.1 | 0.5 | 1.5 | 2.1 | 18.3 | 1.0 | 3.5 | 69.4 |  |  |

Now from value to compound, other results behind:

| IC50 [3] [µM] | maximum percentage of the inhibition [3] [%)] | SMILES | Unreacted amino group [1] [%] | Peak area as % of total area of all glycoforms, 14,569 (lysozyme) [%] | Peak area as % of total area of all glycoforms, 14,551 (lysozyme) [%] | Peak area as % of total area of all glycoforms, 14,533 (lysozyme) [%] | Peak area as % of total area of all glycoforms, 14,515 (lysozyme) [%] | Peak area as % of total area of all glycoforms, 14,419 (lysozyme) [%] | Peak area as % of total area of all glycoforms, 14,401 (lysozyme) [%] | Peak area as % of total area of all glycoforms, 14,437 (lysozyme) [%] | Peak area as % of total area of all glycoforms, 14,496 (lysozyme) [%] | Peak area as % of total area of all glycoforms, 14,364 (lysozyme) [%] | Peak area as % of total area of all glycoforms, 14,305 (lysozyme) [%] | IC50 [2] [µM] | maximum percentage of the inhibition ([2]; Maillard fluorescence, listed if significantly lower than 100%) [%)] |
| --- | --- | --- | --- | --- | --- | --- | --- | --- | --- | --- | --- | --- | --- | --- | --- |
| 41 | 30 | O=C1OC(CN2CCOCC2)CN1/N=C/c1ccc([N+](=O)[O-])o1 (centres unmarked) [Furaltadone] | 60 | 4.5 | 2.7 | 1.1 | 0.0 | 6.3 | 0.0 | 23.9 | 0.0 | 0.9 | 60.6 |  |  |
| 60 |  | O=c1cc(-c2ccc(O)c(O)c2)oc2cc(O)cc(O)c12 [Luteolin] | 60 | 5.2 | 3.0 | 3.9 | 1.4 | 6.3 | 2.1 | 21.2 | 0.8 | 1.1 | 51.4 |  |  |
| 49 |  | O=c1cc(-c2ccccc2)oc2cc(O)c(O)c(O)c12 [Baicalein] | 48 | 0.0 | 0.0 | 0.0 | 0.0 | 0.0 | 0.0 | 5.9 | 0.0 | 0.0 | 94.1 |  |  |
| 350 |  | CS(=O)(=O)Nc1ccc([N+](=O)[O-])cc1Oc1ccccc1 [Nimesulide] | 69 | 5.2 | 3.8 | 2.3 | 1.3 | 7.6 | 0.0 | 22.6 | 0.0 | 3.4 | 49.8 |  |  |
| 110 |  | O=c1c(O)c(-c2ccccc2)oc2cc(O)cc(O)c12 [Galangin] | 64 | 4.3 | 5.2 | 2.2 | 1.0 | 10.2 | 0.8 | 20.2 | 0.0 | 4.1 | 48.0 |  |  |
